In patent US5955632A, “Seco-d steroids active on the cardiovascular system, processes for their preparation and pharmaceutical compositions containing them” (Sigma-Tau Industrie Farmaceutiche Riunite S.p.A., priority 1996, dated 1999):
Where a name gives a salt, the structure may show the parent alone.

Legend:
[1] = system: spontaneous hypertensive rats (MHS); assay: effect of 5 week-treatment in spontaneous hypertensive rats (MHS) on the development of hypertension (tail cuff SBP and HR); type: in vivo, rat; conditions: 1 mg/Kg/os daily in Methocel 0.5% w/v, 5 weeks; for SBP (systolic blood pressure): controls (Methocel) 172 +/- 3.5; for HR (heart rate): controls (Methocel) 380 +/- 9.0
Experimental: To test the antihypertensive activity the following test was used:
systolic blood pressure (SBP) and heart rate (HR) were measured, by the tail cuff method, in young prehypertensive male rats (MHS or SHR) strains before the development of hypertension (4 weeks of age) for recording the basal values of SBP. Groups of 7 rats were formed and subdivided in control and treated groups. The compound, suspended in Methocel 0.5% (w/v), was orally given daily for at least 5 weeks to the treated groups. The control group received only Methocel. SBP and HR were measured weekly 6 and 24 hrs after treatment. After 5 weeks of treatment, when hypertension was fully developed in the control group (9 weeks of age), washout was started for at least one week, to verify whether the treatment mantained blood pressure low or reestablished the basal values.
(Takeda K. et al., Japan J. Pharmacol., 1979, 29,171; Takeda K. et al. Japan J. Pharmacol., 1982, 32, 283; Richer C. et al. Eur. J. Pharmacol, 1978, 47,393).

Na^+,K^+ -ATPase [2] = target: T1, Na^+,K^+ -ATPase (Canis lupus familiaris, UniProt P50997); assay: displacement of the specific ^3H-ouabain binding from the purified Na^+,K^+-ATPase receptor
T1 construct: from tissue; the cited Jorgensen 1974 method uses outer medulla of mammalian kidney (own knowledge)
Description: (§1) To test the affinity for the receptor site of the Na^+,K^+ -ATPase and the agonist or antagonist activity on the enzyme, the following tests were used:
a) displacement of the specific ^3 H-ouabain binding from the Na^+,K^+ -ATPase receptor purified according to Jorghensen (Jorghensen P., BBA, 1974, 356, 36) and Erdmann (Erdmann E. et al., Arzneim. Forsh, 1984, 34, 1314);

Na^+,K^+ -ATPase [3] = target: T1, Na^+,K^+ -ATPase; assay: biochemical
Description: as §1
b) inhibition of the activity of the purified Na^+,K^+ -ATPase measured as % of hydrolysis of ^32 P-ATP in presence and in absence of the tested compound (Doucet A. et al., Am. J. Physiol., 1986, 251, F851).

[4] = ^3H-ouabain displacement, purified Na^+,K^+-ATPase, read-out: Binding ^3 H-Ouab. Displacement log IC50 (converted)
[5] = purified Na^+,K^+-ATPase, ^32P-ATP hydrolysis, read-out: Inhibitory Activity log IC50 (converted)

C[C@@H](C/C=N/OCCN)[C@@]1(C)CC[C@H]2[C@@H](CC[C@@H]3C[C@@H](O)CC[C@@]32C)C1=O [Comp. I-ae, E-17β-Methyl-15-[(2-aminoethoxy)imino]-5β-14,15-seco-3β-hydroxy-androstan-14-one oxalate]
SBP (systolic blood pressure) [1]: 149 +/- 3.7 mm Hg
HR (heart rate) [1]: 370 +/- 11.2 beats/min.

CC[C@@H](C/C=N/OCCN)[C@@]1(C)CC[C@H]2[C@@H](CC[C@H]3C[C@@H](O)CC[C@@]32C)C1=O [Comp. I-bg, E-17α-2-[(2-Aminoethoxy)iminomethyl]-14,15-seco-3β-hydroxy-androstan-14-one oxalate]
IC50 (Na^+,K^+ -ATPase [2]): 158 nM
IC50 (Na^+,K^+ -ATPase [3]): 1000 nM
SBP (systolic blood pressure) [1]: 151 +/- 5.2 mm Hg
HR (heart rate) [1]: 388 +/- 9.0 beats/min.

CC[C@H](C/C=N/OCCN(C)C)[C@@]1(C)CC[C@H]2[C@@H](CC[C@@H]3C[C@@H](O)CC[C@@]32C)C1=O [Comp. I-aq, E-17β-2-[(2-Dimethylaminoethoxy)iminomethyl]-5β-14,15-seco-3β-hydroxy-androstan-14-one oxalate]
IC50 (Na^+,K^+ -ATPase [2]): 794 nM
IC50 (Na^+,K^+ -ATPase [3]): 12600 nM

CC[C@@H](C/C=N/NC(=N)N)[C@@]1(C)CC[C@H]2[C@@H](CC[C@@H]3C[C@@H](O)CC[C@@]32C)C1=O [Comp. I-ay, E-17α-2-(2-Guanidinoiminoethyl)-5β-14,15-seco-3β-hydroxy-androstan-14-one oxalate]
IC50 (Na^+,K^+ -ATPase [2]; [4]): 398 nM
IC50 (Na^+,K^+ -ATPase [3]; [5]): 3160 nM

CC[C@H](/C=N/OCCN(C)C)[C@@]1(C)CC[C@H]2[C@@H](CC[C@@H]3C[C@@H](O)CC[C@@]32C)C1=O [Comp. I-ai, E-17β-2-[(2-Dimethylaminoethoxy)iminomethyl]-5β-14,15-seco-3β-hydroxy-androstan-14-one oxalate]
IC50 (Na^+,K^+ -ATPase [2]; [4]): 3980 nM
IC50 (Na^+,K^+ -ATPase [3]; [5]): 100000 nM

CC[C@@H](C/C=C/C=N/OCCN(C)C)[C@@]1(C)CC[C@H]2[C@@H](CC[C@@H]3C[C@@H](O)CC[C@@]32C)C1=O [Comp. I-be, E,E-17α-4-[(2-Dimethylaminoethoxyimino)-2-butenyl]-5β-14,15-seco-3β-hydroxy-androstan-14-one oxalate]
IC50 (Na^+,K^+ -ATPase [2]; [4]): 316 nM
IC50 (Na^+,K^+ -ATPase [3]; [5]): 6310 nM
SBP (systolic blood pressure) [1]: 150 +/- 5.1 mm Hg
HR (heart rate) [1]: 384 +/- 7.9 beats/min.

CC[C@@H](C/C=N/OCCN(C)C)[C@@]1(C)CC[C@H]2[C@@H](CC[C@@H]3C[C@@H](O)CC[C@@]32C)C1=O [Comp. I-as, E-17α-2-[(2-Dimethylaminoethoxy)iminomethyl]-5β-14,15-seco-3β-hydroxy-androstan-14-one oxalate]
IC50 (Na^+,K^+ -ATPase [2]): 100 nM
IC50 (Na^+,K^+ -ATPase [3]): 1260 nM

CC[C@@H](C/C=N/OCCN)[C@@]1(C)CC[C@H]2[C@@H](CC[C@@H]3C[C@@H](O)CC[C@@]32C)C1=O [Comp. I-ao, E-17α-2-[(2-Aminoethoxy)iminomethyl]-5β-14,15-seco-3β-hydroxy-androstan-14-one oxalate]
IC50 (Na^+,K^+ -ATPase [2]): 39.8 nM
IC50 (Na^+,K^+ -ATPase [3]): 200 nM

C[C@@H](C/C=N/OCCN(C)C)[C@@]1(C)CC[C@H]2[C@@H](CC[C@@H]3C[C@@H](O)CC[C@@]32C)C1=O [Comp. I-ag, E-17β-Methyl-15-[(2-dimethylaminoethoxy)imino]-5β-14,15-seco-3β-hydroxy-androstan-14-one oxalate]
SBP (systolic blood pressure) [1]: 154 +/- 4.8 mm Hg
HR (heart rate) [1]: 390 +/- 5.9 beats/min.

CC[C@@H](/C=N/OCCN(C)C)[C@@]1(C)CC[C@H]2[C@@H](CC[C@@H]3C[C@@H](O)CC[C@@]32C)C1=O [Comp. I-ak, E-17β-2-[(2-Dimethylaminoethoxy)iminomethyl]-5β-14,15-seco-3β-hydroxy-androstan-14-one oxalate]
IC50 (Na^+,K^+ -ATPase [2]; [4]): 501 nM
IC50 (Na^+,K^+ -ATPase [3]; [5]): 7940 nM
SBP (systolic blood pressure) [1]: 153 +/- 6.3 mm Hg
HR (heart rate) [1]: 380 +/- 10.0 beats/min.

CC[C@@H](C/C=N/OCCN(C)C)[C@@]1(C)CC[C@H]2[C@@H](CC[C@H]3C[C@@H](O)CC[C@@]32C)C1=O [Comp. I-bi, E-17α-2-[(2-Dimethylaminoethoxy)iminomethyl]-14,15-seco-3β-hydroxy-androstan-14-one oxalate]
IC50 (Na^+,K^+ -ATPase [2]): 2000 nM
IC50 (Na^+,K^+ -ATPase [3]): 10000 nM
